Reference: patent US8536168B2 (Novartis AG, priority 2007, dated 2013)
Where two headings read alike, the source gives them in different places.

Tests used:
[1] = target: human Smoothened receptor (Homo sapiens, UniProt Q99835); experiment: Smo binding assay, displacement of radio-labeled smoothened agonist, filter binding format (human); conditions: displacement of small molecule agonist of Smoothened, read-out: Human Smo bdg., IC50
From the text: A Smo binding assay was developed using radio-labeled smoothened agonist for compound competition. Table 9 lists the IC50 for displacement of a small molecule agonist of Smoothened determined in a filter binding format for the mouse and human Smoothened receptor.

[2] = test system: Gli-luciferase activity; experiment: Reporter gene assay (RGA) in TMHh12 cells, antagonism of Gli-luciferase activity in the presence of a Smo agonist; format: cell-based
Description: Activity of the compounds was evaluated using a reporter gene assay (RGA) in TMHh12 cells.

[3] = target: mouse Smoothened receptor (Mus musculus, UniProt P56726); experiment: Smo binding assay, displacement of radio-labeled smoothened agonist, filter binding format (mouse); conditions: displacement of small molecule agonist of Smoothened, read-out: Mouse Smo bdg., IC50
mouse Smoothened receptor, sequence (P56726 33-793): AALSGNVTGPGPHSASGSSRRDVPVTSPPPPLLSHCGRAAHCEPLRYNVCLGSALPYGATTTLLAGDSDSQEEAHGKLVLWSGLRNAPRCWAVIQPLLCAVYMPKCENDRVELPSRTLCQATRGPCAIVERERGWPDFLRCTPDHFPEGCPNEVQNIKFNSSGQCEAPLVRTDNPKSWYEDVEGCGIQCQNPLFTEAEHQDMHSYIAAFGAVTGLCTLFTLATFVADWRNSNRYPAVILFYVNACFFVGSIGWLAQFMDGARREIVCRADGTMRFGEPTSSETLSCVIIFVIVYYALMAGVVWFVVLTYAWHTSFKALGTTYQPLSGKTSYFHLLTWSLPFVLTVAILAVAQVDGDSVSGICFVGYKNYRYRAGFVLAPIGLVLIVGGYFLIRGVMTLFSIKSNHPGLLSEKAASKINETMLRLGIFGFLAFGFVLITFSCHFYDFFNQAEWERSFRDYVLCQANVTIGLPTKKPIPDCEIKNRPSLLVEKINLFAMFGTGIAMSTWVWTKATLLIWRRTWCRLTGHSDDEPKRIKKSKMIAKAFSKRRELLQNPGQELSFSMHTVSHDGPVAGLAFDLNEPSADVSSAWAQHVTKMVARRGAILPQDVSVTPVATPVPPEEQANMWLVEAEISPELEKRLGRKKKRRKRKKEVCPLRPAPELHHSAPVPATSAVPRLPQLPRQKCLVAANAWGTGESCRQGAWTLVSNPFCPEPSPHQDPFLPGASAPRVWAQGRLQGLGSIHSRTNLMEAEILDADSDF
From the text: A Smo binding assay was developed using radio-labeled smoothened agonist for compound competition.

[4] = 25 nM small molecule Smo agonist, read-out: RGA (25 nM Smo agonist) IC50
[5] = read-out: RGA (1 nM Smo agonist) IC50, 1 nM small molecule Smo agonist

human Smoothened receptor, sequence (Q99835 28-787): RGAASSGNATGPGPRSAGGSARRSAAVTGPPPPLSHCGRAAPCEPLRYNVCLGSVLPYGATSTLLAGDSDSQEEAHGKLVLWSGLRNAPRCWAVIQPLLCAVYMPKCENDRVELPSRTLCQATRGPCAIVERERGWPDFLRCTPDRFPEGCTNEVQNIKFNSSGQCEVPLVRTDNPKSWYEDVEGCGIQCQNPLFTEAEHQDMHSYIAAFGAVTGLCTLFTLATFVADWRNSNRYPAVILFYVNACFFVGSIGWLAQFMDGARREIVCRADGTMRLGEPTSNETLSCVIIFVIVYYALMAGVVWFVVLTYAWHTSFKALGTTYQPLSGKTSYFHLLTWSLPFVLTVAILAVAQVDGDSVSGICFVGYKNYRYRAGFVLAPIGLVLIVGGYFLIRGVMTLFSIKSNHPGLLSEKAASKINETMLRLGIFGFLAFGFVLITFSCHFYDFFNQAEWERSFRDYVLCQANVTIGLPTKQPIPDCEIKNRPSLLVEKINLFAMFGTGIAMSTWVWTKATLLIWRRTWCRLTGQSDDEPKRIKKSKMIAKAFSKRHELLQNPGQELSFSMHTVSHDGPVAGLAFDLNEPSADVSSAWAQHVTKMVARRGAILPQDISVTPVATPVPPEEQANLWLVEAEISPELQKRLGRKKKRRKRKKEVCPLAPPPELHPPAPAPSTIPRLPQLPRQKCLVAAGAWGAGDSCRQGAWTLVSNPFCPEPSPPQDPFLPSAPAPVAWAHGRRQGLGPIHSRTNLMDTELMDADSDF

Row | SMILES | IC50 [1] | IC50 [2, 4] | IC50 [2, 5] | IC50 [3]
1 | CC(O)(CO)c1cnc(N2CCN(c3nnc(Cc4ccccc4)c4ccccc34)CC2)cn1 (stereo not shown) [Example 166, 2-[4-(4-Benzyl-phthalazin-1-yl)-3,4,5,6-tetrahydro-2H-[1,2′]bipyrazinyl-5′-yl]-propane-1,2-diol] | < 100 nM | 100 to 1000 nM | < 100 nM | < 100 nM
2 | COC(=O)c1ccc(Cc2nnc(N3CCN(c4ccc(C#N)cn4)CC3)c3ccccc23)cc1 [Example 179] | 100 to 1000 nM | 10000 to 40000 nM | 100 to 1000 nM | 100 to 1000 nM
3 | CC(C)(N)c1ccc(N2CCN(c3nnc(Cc4ccccc4)c4ccccc34)CC2)nc1 [Example 120, 2-(6-(4-(4-Benzylphthalazin-1-yl)piperazin-1-yl)pyridin-3-yl)propan-2-amine] | < 100 nM | < 100 nM | < 100 nM | < 100 nM
4 | FC(F)(F)c1ccnc(N2CCN(c3nnc(Cc4ccccc4)c4ccccc34)CC2)n1 [Example 50] | 100 to 1000 nM | 100 to 1000 nM | < 100 nM | 100 to 1000 nM
5 | C[C@H]1CN(c2ccc(C#N)cn2)CCN1c1nnc(Cc2ccccc2)c2ccccc12 [Example 117] | < 100 nM | 100 to 1000 nM | < 100 nM | < 100 nM
6 | N#Cc1ccc(N2CCN(c3nnc(Cc4ccc(Cl)cc4Cl)c4ccccc34)CC2)nc1 [Example 177] | < 100 nM | 100 to 1000 nM | 100 to 1000 nM | < 100 nM
7 | CC(C)(O)c1ccc(N2CCN(c3nnc(Cc4ccccc4)c4ccccc34)CC2)nc1 [Example 54a, 2-{6-[4-(4-Benzyl-phthalazin-1-yl)-piperazin-1-yl]-pyridin-3-yl}-propan-2-ol] | < 100 nM | < 100 nM | < 100 nM | < 100 nM
8 | CC(C)c1cnc(N2CCN(c3nnc(Cc4ccccc4)c4ccccc34)CC2)cn1 [Example 165, 4-(4-Benzyl-phthalazin-1-yl)-5′-isopropyl-3,4,5,6-tetrahydro-2H-[1,2′]bipyrazinyl] | < 100 nM | < 100 nM | < 100 nM | < 100 nM
9 | OC1(c2ccc(N3CCN(c4nnc(Cc5ccccc5)c5ccccc45)CC3)nc2)CC1 [Example 135] | < 100 nM | 100 to 1000 nM | < 100 nM | < 100 nM
10 | N#Cc1ccc(C(=O)N2CCC(c3cn(Cc4ccc(F)cc4)c4ccccc34)CC2)cc1 [Example 102] | 100 to 1000 nM | – | 100 to 1000 nM | 100 to 1000 nM
11 | CN(CCCO)C(=O)c1ccc(N2CCN(c3nnc(Cc4ccccc4)c4ccccc34)CC2)nc1 [Example 54t] | 100 to 1000 nM | 100 to 1000 nM | < 100 nM | < 100 nM
12 | CN(CCO)C(=O)c1cnc(N2CCN(c3nnc(Cc4ccccc4)c4ccccc34)CC2)nc1 [Example 54cc] | 100 to 1000 nM | 100 to 1000 nM | < 100 nM | 100 to 1000 nM
13 | CC(O)CC(=O)NCc1ccc(N2CCN(c3nnc(Cc4ccccc4)c4ccccc34)CC2)nc1 (stereo not shown) [Example 213] | 100 to 1000 nM | 100 to 1000 nM | < 100 nM | 100 to 1000 nM
14 | N#Cc1ccc(N2CCN(c3nnc(Cc4ccc(Br)cc4)c4ccccc34)CC2)nc1 [Example 66] | < 100 nM | 100 to 1000 nM | < 100 nM | < 100 nM
15 | C[C@H]1CN(c2ccc(C(C)(C)O)cn2)CCN1c1nnc(Cc2ccc(F)cc2F)c2ccccc12 [Example 195] | < 100 nM | < 100 nM | < 100 nM | < 100 nM
16 | NS(=O)(=O)c1ccc(N2CCN(c3nnc(Cc4ccccc4)c4ccccc34)CC2)nc1 [Example 132] | < 100 nM | 100 to 1000 nM | < 100 nM | < 100 nM
17 | COC(=O)c1ccc(C2CCN(c3nnc(Cc4ccccc4)c4ccccc34)CC2)cc1 [Example 115] | 1000 to 10000 nM | 1000 to 10000 nM | 1000 to 10000 nM | 1000 to 10000 nM
18 | CCOC(=O)c1ccc(N2CCN(c3nnc(Cc4ccccc4)c4ccccc34)C[C@H]2C)nc1 [Example 144, 6-[(R)-4-(4-Benzyl-phthalazin-1-yl)-2-methyl-piperazin-1-yl]-nicotinic acid ethyl ester] | < 100 nM | 100 to 1000 nM | < 100 nM | < 100 nM
19 | FC(F)(F)c1ccc(N2CCCN(c3nnc(Cc4ccccc4)c4ccccc34)CC2)nc1 [Example 3] | – | 100 to 1000 nM | 100 to 1000 nM | < 100 nM

Row | SMILES | IC50 [1] | IC50 [2, 4] | IC50 [2, 5] | IC50 [3]
20 | COC(=O)c1cnc(N2CCN(c3nnc(Cc4ccccc4)c4ccccc34)C[C@H]2C)cn1 [Example 145, (R)-4-(4-Benzyl-phthalazin-1-yl)-2-methyl-3,4,5,6-tetrahydro-2H-[1,2′]bipyrazinyl-5′-carboxylic acid methyl ester] | < 100 nM | 100 to 1000 nM | < 100 nM | –
21 | c1ccc(Cc2nnc(N3CCN(c4cnccn4)CC3)c3ccccc23)cc1 [Example 21] | – | 1000 to 10000 nM | 100 to 1000 nM | 100 to 1000 nM
22 | Cc1ccccc1N1CCN(c2nnc(Cc3ccccc3)c3ccccc23)CC1 [Example 38] | – | 1000 to 10000 nM | 1000 to 10000 nM | 10000 to 40000 nM
23 | O=C(c1ccc(N2CCN(c3nnc(Cc4ccccc4)c4ccccc34)CC2)nc1)N1CCSC1 [Example 54p] | – | 100 to 1000 nM | < 100 nM | < 100 nM
24 | c1ccc(Cc2nnc(N3CCN(c4ncccn4)CC3)c3ccccc23)cc1 [Example 25] | – | 1000 to 10000 nM | < 100 nM | 100 to 1000 nM
25 | CC(=O)Nc1cnc(N2CCN(c3nnc(Cc4ccccc4)c4ccccc34)CC2)nc1 [Example 237, N-{2-[4-(4-Benzyl-phthalazin-1-yl)-piperazin-1-yl]-pyrimidin-5-yl}-acetamide] | – | 100 to 1000 nM | 100 to 1000 nM | 100 to 1000 nM
26 | c1ccc(Cc2nnc(N3CCN(c4ccc5ccccc5c4)CC3)c3ccccc23)cc1 [Example 31] | – | 1000 to 10000 nM | 100 to 1000 nM | 100 to 1000 nM
27 | O=C(NCc1ccc(N2CCN(c3nnc(Cc4ccncc4)c4ccccc34)CC2)cc1)OCc1ccccc1 [Example 78] | – | 10000 to 40000 nM | 1000 to 10000 nM | 1000 to 10000 nM
28 | COC(=O)c1cnc(N2CCN(c3nnc(Cc4ccccc4)c4ccccc34)CC2)nc1 [Example 140] | – | 1000 to 10000 nM | 1000 to 10000 nM | 100 to 1000 nM
29 | O=C(NCC1CCCCC1)c1ccc(N2CCN(c3nnc(Cc4ccccc4)c4ccccc34)CC2)nc1 [Example 54m] | – | 100 to 1000 nM | < 100 nM | < 100 nM
30 | c1ccc(Cc2nnc(N3CCC(c4ccccc4)CC3)c3ccccc23)cc1 [Example 12] | – | 1000 to 10000 nM | 1000 to 10000 nM | 10000 to 40000 nM
31 | c1ccc(Cc2nnc(N3CCN(c4ccc5ccccc5n4)CC3)c3ccccc23)cc1 [Example 18] | – | 100 to 1000 nM | < 100 nM | < 100 nM
32 | O=C(NCc1ccccc1)c1ccc(N2CCN(c3nnc(Cc4ccccc4)c4ccccc34)CC2)nc1 [Example 54l] | – | 100 to 1000 nM | < 100 nM | < 100 nM
33 | c1ccc(Cc2nnc(N3CCCN(c4ncccn4)CC3)c3ccccc23)cc1 [Example 40] | – | 100 to 1000 nM | < 100 nM | 100 to 1000 nM
34 | CN(C)C(=O)c1ccc(N2CCN(c3nnc(Cc4ccc(F)cc4F)c4ccccc34)CC2)nc1 [Example 202] | – | 100 to 1000 nM | < 100 nM | < 100 nM
35 | Cc1cc(N2CCN(c3ccc(C#N)cn3)CC2)nnc1Cc1ccc(Cl)cc1 [Example 93] | – | – | 100 to 1000 nM | < 100 nM
36 | Clc1ccc(N2CCN(c3nnc(Cc4ccccc4)c4ccccc34)CC2)cc1Cl [Example 30] | – | 1000 to 10000 nM | 100 to 1000 nM | 1000 to 10000 nM
37 | Cc1ccc(N2CCN(c3nnc(Cc4ccncc4)c4ccccc34)CC2C)cc1 (stereo not shown) [Example 28] | – | 1000 to 10000 nM | 1000 to 10000 nM | 1000 to 10000 nM
